# Assay results published in publication PMC7252619 (PLoS ONE, 2020).
# Read-outs that look alike come from different tables or passages of the source.
# Experiments:
# [1] = biological target: T1, DAPK1 (Homo sapiens, UniProt P53355); experiment: Kinase activity test (ReactionBiology), % enzyme activity relative to DMSO; type: biochemical; details: DAPK1
# T1 construct: purchased ReactionBiology
# [2] = WST-1 cytotoxicity assay on RPMI1788 cells (B-cell line); type: cell-based, human; details: human, RPMI1788 cells (B-cell line), mean of 4 independent measures, read-out: Cytotoxicity, WST-1 RPMI 1788 IC 50 (µM) Mean
# Protocol: (§1) Compounds were prepared as 10 mM stock solutions in dimethylsulfoxide (DMSO)and were tested at 50-10-1-0.1-0.01 and 0.001 μM in the 4 assays.
# The human B cell line RPMI1788 (American Type Culture Collection, USA) and the human T cell line Jurkat (European Collection of Cell Cultures, ECACC, England) were maintained in RPMI1640 culture medium (BioWhittaker®, Lonza, Verviers, Belgium) containing 10% foetal calf serum (FCS, HyClone® Thermo Scientific, United Kingdom) and 5 μg/mL gentamicin sulphate (BioWhittaker®, Lonza, Verviers, Belgium) at 37°C and 5% CO2.
# WST-1 assays on RPMI-1788 cells and Jurkat cells were performed as follows: 20 μL of test compound dilution were added to each well containing exponential growing cells and the plates were incubated for 48 h at 37°C, 5% CO2. Untreated cells and positive control (1% triton X-100, for the last 15 min) served as reference for maximum and minimum viability. At the end of incubation 100 μL of supernatant were removed and replaced by 10 μL of WST-1 solution (Cell Proliferation Reagent WST-1, Roche Applied Science).
# [3] = biological target: T2, EPHB4 (Homo sapiens, UniProt P54760); experiment: Kinase activity test (ReactionBiology), % enzyme activity relative to DMSO; type: biochemical; details: EPHB4;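 also: EPHB4 was one of ten selected kinases in the screening panel, with enzyme activity expressed as a percentage of DMSO controls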
# T2 construct: purchased ReactionBiology
# T2 sequence (P54760 16-987): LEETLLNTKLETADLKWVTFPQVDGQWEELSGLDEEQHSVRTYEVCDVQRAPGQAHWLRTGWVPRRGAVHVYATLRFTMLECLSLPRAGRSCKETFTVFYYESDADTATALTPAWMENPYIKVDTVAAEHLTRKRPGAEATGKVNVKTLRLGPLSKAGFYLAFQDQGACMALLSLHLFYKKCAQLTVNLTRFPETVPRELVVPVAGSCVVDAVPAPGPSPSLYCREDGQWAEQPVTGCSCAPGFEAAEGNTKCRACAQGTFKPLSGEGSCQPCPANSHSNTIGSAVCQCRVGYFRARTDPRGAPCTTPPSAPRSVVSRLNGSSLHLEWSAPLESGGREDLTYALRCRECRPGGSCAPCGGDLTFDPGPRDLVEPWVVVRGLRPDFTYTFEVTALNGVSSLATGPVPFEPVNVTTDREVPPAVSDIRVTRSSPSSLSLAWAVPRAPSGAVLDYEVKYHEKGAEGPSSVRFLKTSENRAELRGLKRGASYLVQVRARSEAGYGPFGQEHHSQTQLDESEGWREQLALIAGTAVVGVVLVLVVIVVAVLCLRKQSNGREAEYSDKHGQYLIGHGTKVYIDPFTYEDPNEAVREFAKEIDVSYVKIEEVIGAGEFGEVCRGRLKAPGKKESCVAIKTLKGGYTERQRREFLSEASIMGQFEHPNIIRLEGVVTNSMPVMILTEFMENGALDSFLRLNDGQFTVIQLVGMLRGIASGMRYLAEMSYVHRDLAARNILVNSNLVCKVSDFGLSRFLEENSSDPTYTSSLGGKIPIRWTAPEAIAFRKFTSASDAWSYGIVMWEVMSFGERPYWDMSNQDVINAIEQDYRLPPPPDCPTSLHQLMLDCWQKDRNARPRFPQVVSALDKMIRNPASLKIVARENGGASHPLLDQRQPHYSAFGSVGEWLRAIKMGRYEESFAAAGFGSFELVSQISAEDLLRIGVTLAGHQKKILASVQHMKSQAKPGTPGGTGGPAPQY
# [4] = biological target: T3, MAP2K2 (Homo sapiens, UniProt P36507); experiment: as above; type: biochemical; details: MEK2
# T3 construct: purchased ReactionBiology
# T3 sequence (P36507 whole entry): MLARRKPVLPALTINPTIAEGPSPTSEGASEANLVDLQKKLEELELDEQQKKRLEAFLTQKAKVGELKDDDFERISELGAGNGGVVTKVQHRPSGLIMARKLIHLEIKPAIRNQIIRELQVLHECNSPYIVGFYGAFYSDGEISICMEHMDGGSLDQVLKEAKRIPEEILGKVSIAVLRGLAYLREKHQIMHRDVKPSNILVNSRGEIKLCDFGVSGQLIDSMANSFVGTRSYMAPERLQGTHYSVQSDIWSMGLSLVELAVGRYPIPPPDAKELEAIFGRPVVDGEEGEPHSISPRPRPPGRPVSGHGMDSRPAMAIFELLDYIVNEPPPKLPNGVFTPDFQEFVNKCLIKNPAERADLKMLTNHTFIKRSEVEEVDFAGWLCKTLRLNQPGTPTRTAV
# [5] = test system: human PBMCs (responder cells) with RPMI1788 stimulator cells; experiment: Mixed Lymphocyte Reaction (MLR, T cell assay), 3H-thymidine incorporation; type: cell-based; details: Homo sapiens, RPMI-1788; mean of 4 independent measures; read-out: T-cell efficacy, MLR IC 50 (µM) Mean
# [6] = biological target: VEGFR2 (Homo sapiens, UniProt P35968); experiment: Kinase activity test (ReactionBiology), % enzyme activity relative to DMSO; type: biochemical; design: purchased ReactionBiology; details: VEGFR2;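 also: VEGFR2 was one member of a ten-kinase screening panel testing marketed FDA-approved drugs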
# Chain of VEGFR2 (P35968 20-1356): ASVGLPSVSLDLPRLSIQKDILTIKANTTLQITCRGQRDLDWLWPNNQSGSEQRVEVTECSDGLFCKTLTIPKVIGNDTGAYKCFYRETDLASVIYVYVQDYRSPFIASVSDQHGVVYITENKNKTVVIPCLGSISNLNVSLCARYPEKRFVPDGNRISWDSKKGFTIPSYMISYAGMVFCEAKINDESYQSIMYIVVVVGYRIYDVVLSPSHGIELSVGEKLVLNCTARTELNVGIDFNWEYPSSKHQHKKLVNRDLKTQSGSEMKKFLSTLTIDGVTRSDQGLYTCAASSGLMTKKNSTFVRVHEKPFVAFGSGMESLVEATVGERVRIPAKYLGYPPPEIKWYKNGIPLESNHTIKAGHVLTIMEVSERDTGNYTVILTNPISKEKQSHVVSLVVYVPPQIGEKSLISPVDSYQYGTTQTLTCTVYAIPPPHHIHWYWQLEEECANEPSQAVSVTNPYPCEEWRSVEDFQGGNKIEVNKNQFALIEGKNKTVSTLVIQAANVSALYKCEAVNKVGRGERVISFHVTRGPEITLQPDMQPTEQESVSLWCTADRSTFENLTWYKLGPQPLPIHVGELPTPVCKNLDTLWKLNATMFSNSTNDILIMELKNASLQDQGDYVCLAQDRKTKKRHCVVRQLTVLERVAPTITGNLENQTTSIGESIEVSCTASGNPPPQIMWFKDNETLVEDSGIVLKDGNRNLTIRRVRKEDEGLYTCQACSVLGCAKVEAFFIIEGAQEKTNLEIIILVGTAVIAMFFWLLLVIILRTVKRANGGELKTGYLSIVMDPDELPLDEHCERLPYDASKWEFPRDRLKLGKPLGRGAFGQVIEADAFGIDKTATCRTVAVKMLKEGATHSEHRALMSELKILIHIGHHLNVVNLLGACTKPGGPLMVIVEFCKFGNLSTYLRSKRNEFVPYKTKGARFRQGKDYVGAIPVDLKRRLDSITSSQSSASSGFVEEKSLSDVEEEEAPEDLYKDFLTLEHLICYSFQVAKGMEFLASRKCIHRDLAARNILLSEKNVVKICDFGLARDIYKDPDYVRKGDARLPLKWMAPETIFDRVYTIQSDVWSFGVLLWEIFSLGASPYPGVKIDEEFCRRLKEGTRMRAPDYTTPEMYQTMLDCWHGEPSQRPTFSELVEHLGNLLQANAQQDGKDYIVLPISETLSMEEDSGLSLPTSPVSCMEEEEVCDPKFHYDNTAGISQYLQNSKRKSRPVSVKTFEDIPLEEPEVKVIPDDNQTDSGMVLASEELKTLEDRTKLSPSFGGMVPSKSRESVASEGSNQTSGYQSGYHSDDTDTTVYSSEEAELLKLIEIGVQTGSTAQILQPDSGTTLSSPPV
# [7] = biological target: T4, CK1d (Homo sapiens, UniProt P48730); experiment: as above; type: biochemical; details: CK1d
# T4 construct: purchased ReactionBiology
# T4 sequence (P48730 whole entry): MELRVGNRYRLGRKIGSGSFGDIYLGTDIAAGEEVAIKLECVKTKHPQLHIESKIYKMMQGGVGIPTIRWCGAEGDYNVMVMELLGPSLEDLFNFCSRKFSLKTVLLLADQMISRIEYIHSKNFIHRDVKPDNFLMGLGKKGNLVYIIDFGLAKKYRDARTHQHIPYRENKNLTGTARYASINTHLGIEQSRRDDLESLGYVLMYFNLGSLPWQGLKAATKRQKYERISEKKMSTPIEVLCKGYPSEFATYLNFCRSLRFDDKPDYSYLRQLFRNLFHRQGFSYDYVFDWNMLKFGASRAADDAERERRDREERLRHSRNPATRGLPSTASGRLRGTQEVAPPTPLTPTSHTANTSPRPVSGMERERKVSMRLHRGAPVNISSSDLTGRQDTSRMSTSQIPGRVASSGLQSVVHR
# [8] = biological target: T5, NEK2 (Homo sapiens, UniProt P51955); experiment: as above; type: biochemical; details: NEK2;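 also: FDA-approved drugs chosen by structure-based repositioning, each screened at 10 or 1 µM for kinase activity, expressed as percent of DMSO controls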
# T5 construct: purchased ReactionBiology
# T5 sequence (P51955 1-445): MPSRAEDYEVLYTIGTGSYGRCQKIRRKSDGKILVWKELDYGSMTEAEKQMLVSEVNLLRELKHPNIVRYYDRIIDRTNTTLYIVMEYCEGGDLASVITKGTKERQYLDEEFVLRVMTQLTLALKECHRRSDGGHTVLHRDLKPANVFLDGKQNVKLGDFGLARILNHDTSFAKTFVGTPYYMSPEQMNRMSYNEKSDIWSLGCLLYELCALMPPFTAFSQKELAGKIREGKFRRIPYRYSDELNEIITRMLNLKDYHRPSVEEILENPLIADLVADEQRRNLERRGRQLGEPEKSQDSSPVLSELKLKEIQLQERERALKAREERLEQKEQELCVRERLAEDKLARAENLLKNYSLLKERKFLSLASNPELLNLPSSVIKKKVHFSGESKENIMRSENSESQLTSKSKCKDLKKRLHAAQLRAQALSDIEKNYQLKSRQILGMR
# [9] = test system: human CD19+ B cells; experiment: B-cell assay: IgG production of ODN2006-stimulated primary B cells (AlphaLISA); type: cell-based; details: Homo sapiens, B-cell, 168 h; IgG production, ODN2006 0.1 μM, 7 days; mean of 4 independent experiments; read-out: B-cell IC50
# Protocol: as §1
# Blood samples of healthy volunteers were collected at the Red Cross of Mechelen, Belgium.
# Highly purified naive peripheral human B cells were separated from fresh human PBMCs on magnetic columns by positive selection using CD19 magnetic beads according to the manufacturer’s instructions (MACS Miltenyi Biotech, Leiden, The Netherlands). […] Freshly isolated human CD19+ B cells were then plated at 25 000 cells per well in a 384-well plate (Perkin Elmer, Zaventem, Belgium) in 55 μL in DMEM medium containing 10% FCS and 5 μg/mL gentamicin sulphate. After 7 days of stimulation with 0.1 μM ODN2006 (InvivoGen, Toulouse, France), supernatant was taken for analysis of IgG using the AlphaLISA human IgG kit according to the manufacturer’s instructions (Perkin Elmer, Zaventem, Belgium).
# [10] = WST-1 cytotoxicity assay on Jurkat cells (T-cell line); type: cell-based, human; details: human, Jurkat cells (T-cell line), mean of 4 independent measures, read-out: Cytotoxicity, WST-1 Jurkat IC 50 (µM) Mean
# [11] = Average, read-out: % Enzyme Activity (relative to DMSO controls), Average
# [12] = replicate Data 1, read-out: % Enzyme Activity (relative to DMSO controls), Data 1
# [13] = replicate Data 2, read-out: % Enzyme Activity (relative to DMSO controls), Data 2
# [14] = 1 uM, Average, read-out: % Enzyme Activity (relative to DMSO controls), Average
# [15] = 1 uM, replicate Data 1, read-out: % Enzyme Activity (relative to DMSO controls), Data 1
# [16] = 1 uM, replicate Data 2, read-out: % Enzyme Activity (relative to DMSO controls), Data 2
# [17] = 10 uM, Average, read-out: % Enzyme Activity (relative to DMSO controls), Average
# [18] = 10 uM, replicate Data 1, read-out: % Enzyme Activity (relative to DMSO controls), Data 1
# [19] = 10 uM, replicate Data 2, read-out: % Enzyme Activity (relative to DMSO controls), Data 2
# [20] = compound 1μM, relative to DMSO controls, read-out: % Enzyme activity at 1μM
# [21] = compound 10μM, relative to DMSO controls, read-out: % Enzyme activity at 10μM
# T1 sequence (P53355 whole entry): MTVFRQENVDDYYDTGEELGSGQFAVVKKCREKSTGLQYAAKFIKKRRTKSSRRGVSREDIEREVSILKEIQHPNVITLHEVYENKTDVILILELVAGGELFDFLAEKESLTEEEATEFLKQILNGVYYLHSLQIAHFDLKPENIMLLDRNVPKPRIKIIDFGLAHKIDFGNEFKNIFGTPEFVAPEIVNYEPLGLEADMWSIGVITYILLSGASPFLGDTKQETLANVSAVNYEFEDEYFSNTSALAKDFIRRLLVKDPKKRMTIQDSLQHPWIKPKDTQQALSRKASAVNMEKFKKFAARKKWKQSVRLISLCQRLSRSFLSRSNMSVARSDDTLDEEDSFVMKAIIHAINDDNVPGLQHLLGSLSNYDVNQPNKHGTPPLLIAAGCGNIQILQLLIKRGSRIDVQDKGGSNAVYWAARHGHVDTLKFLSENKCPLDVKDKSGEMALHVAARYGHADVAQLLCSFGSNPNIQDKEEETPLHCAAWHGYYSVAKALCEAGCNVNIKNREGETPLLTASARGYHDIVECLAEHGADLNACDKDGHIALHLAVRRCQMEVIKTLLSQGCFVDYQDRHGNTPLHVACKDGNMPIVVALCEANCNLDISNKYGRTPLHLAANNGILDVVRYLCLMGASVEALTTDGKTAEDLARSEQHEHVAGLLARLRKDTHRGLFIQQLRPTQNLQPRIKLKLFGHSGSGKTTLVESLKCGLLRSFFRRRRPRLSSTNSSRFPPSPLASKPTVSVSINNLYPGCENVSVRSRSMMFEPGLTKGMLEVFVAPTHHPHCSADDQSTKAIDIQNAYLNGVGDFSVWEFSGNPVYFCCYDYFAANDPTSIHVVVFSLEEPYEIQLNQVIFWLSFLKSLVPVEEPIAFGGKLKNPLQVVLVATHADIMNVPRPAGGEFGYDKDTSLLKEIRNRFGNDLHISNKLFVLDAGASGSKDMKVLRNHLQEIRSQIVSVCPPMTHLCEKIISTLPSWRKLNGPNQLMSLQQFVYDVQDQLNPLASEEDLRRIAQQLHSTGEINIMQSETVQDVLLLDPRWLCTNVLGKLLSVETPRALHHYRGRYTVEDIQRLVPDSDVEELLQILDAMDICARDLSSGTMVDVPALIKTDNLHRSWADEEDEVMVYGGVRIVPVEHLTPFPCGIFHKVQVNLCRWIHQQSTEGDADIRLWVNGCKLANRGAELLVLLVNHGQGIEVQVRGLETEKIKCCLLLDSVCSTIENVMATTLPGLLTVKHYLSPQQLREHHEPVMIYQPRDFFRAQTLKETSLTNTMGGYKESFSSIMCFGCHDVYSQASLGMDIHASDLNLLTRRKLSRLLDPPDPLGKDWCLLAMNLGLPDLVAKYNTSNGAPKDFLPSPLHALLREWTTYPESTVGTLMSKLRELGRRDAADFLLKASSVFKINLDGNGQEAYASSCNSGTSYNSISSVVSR
smiles,measurement,setting,value
"Nc1ncnc2c1ncn2[C@@H]1O[C@H](CO)[C@@H](O)[C@H]1O [Adenosine, reference compound]",remaining activity at 1 µM,[1]; [11],99.3%
same,remaining activity at 1 µM,[1]; [12],103%
same,remaining activity at 1 µM,[1]; [13],95.9%
same,remaining activity at 10 µM,[1]; [11],81.1%
same,remaining activity at 10 µM,[1]; [12],80.8%
same,remaining activity at 10 µM,[1]; [13],81.4%
same,IC50 at 48 h,[2],> 50 µM
same,remaining activity at 1 µM,[3]; [11],101%
same,remaining activity at 1 µM,[3]; [12],100%
same,remaining activity at 1 µM,[3]; [13],102%
same,remaining activity at 10 µM,[3]; [11],85.4%
same,remaining activity at 10 µM,[3]; [12],84.1%
same,remaining activity at 10 µM,[3]; [13],86.8%
same,remaining activity at 1 µM,[4]; [11],96.1%
same,remaining activity at 1 µM,[4]; [12],96.6%
same,remaining activity at 1 µM,[4]; [13],95.7%
same,remaining activity at 10 µM,[4]; [11],59%
same,remaining activity at 10 µM,[4]; [12],60.6%
same,remaining activity at 10 µM,[4]; [13],57.4%
same,IC50,[5],> 50 µM
same,remaining activity at 1 µM,[6]; [11],111%
same,remaining activity at 1 µM,[6]; [12],111%
same,remaining activity at 1 µM,[6]; [13],111%
same,remaining activity at 10 µM,[6]; [11],98.3%
same,remaining activity at 10 µM,[6]; [12],98.4%
same,remaining activity at 10 µM,[6]; [13],98.2%
same,remaining activity at 1 µM,[7]; [14],87.7%
same,remaining activity at 1 µM,[7]; [15],86.5%
same,remaining activity at 1 µM,[7]; [16],88.9%
same,remaining activity at 10 µM,[7]; [17],50.2%
same,remaining activity at 10 µM,[7]; [18],51.1%
same,remaining activity at 10 µM,[7]; [19],49.4%
same,remaining activity at 1 µM,[7]; [20],87.7%
same,remaining activity at 10 µM,[7]; [21],50.2%
same,remaining activity at 1 µM,[8]; [14],79.9%
same,remaining activity at 1 µM,[8]; [15],73.6%
same,remaining activity at 1 µM,[8]; [16],86.1%
same,remaining activity at 10 µM,[8]; [17],71.7%
same,remaining activity at 10 µM,[8]; [18],77.2%
same,remaining activity at 10 µM,[8]; [19],66.2%
same,remaining activity at 1 µM,[8]; [20],96.1%
same,remaining activity at 10 µM,[8]; [21],59%
same,IC50,[9],> 50 µM
same,IC50 at 48 h,[10],> 50 µM
